Values quoted from earlier work in article PMC10703426, “New characterization of dihydroergotamine receptor pharmacology in the context of migraine: utilization of a β-arrestin recruitment assay” (Frontiers in Neurology, 2023).

System: 5-HT1D
Design: method as in doi:10.1186/1129-2377-14-S1-P75
Conditions: cited from earlier work

**Q.** For `CNS(=O)(=O)Cc1ccc2[nH]cc(CCN(C)C)c2c1` [sumatriptan succinate], which dissociation half-life is on record?
**A.** 5.4 min
